Test results as given in patent US20190336598A1, “METHODS FOR MODULATING INFLAMMASOME ACTIVITY AND INFLAMMATION IN THE LUNG” (UNIVERSITY OF MIAMI, priority 2016, published 2019).
Entries after “also recorded” stand apart in the source; their conditions may differ.

B1: IC 100: humanized monoclonal antibody against ASC; recognizes murine, human and swine ASC (antibody, V domains shown)
VH: QVTLKESGPALVKPTQTLTLTCSFSGFSLSTSGMGVSWIRQPAGKGLEWLAHIYWDDDKRYNPSLKSRLTISKDSSKNQVVLTMTNMDPVDTATYSCARSTPIVANAMDYWGQGTLVTVSS
VL: DIVMTQSPDSLAVSLGERATINCKASQSVDYDGDSYMNWYQQKPGQPPKLLIYAASNLESGIPARFSGSGSGTDFTLTISSLQPEDVATYYCQQSNEDPYTFGQGTKLEIK

Key:
Format in all cases: in vivo, C57-BL6 mice
[1] = tested on: inflammasome proteins (caspase-1, ASC, IL-1β, AIM2, HMGB1) in lungs; experiment: Immunoblot of inflammasome proteins in lungs after adoptive transfer of EV from TBI mice and treatment; conditions: vs untreated positive control; Enoxaparin 3 mg/kg or IC 100 5 mg/kg one hour after EV from TBI mice; lungs collected 24 hours after injection; p=<0.0001
Method: Lung and brain tissue samples were snap frozen in liquid nitrogen and stored in −80° C. 2-mm sections of right lower lung and right cortical tissue were homogenized in extraction buffer containing protease and phosphatase inhibitor cocktail (Sigma, St Louis, Mo., USA) and resolved in 4-20% Tris-TGX Criterion precasted gels (Bio-Rad, Hercules, Calif., USA) as described in de Rivero Vaccari et al. 2015 (13) using antibodies to caspase-1 (Novus Biologicals), ASC (Santa Cruz), IL-1 β (Cell Signaling), IL-18 (Abcam) AIM2 (Santa Cruz) and HMGB1 (Millipore). Quantification of band density was performed using Image Lab and all data were normalized to β-actin.
(§1) Serum-derived EV from C57BL-6 TBI and sham mice were injected into naïve C57BL-6 mice through the jugular vein at a dose of 1.0×10^10 particles per gram/body weight^48. Particle count was measured by Nanosight Tracking analysis and samples were diluted accordingly. Prior to surgery animals were anesthetized with ketamine and […]. A 1-2 cm incision was made between the jaw and the clavicle. The jugular vein was elevated and tied, followed by catheter placement. Serum-derived EV were transferred and lung and brain tissues were collected 24 hours after injection for analysis (n=5).
(§2) Serum-derived EV from TBI mice were injected into naïve C57-BL6 mice through a jugular vein injection. One hour later, Enoxaparin (3 mg/kg) (n=4) and Anti-ASC (5 mg/kg) (n=4) were administered to recipient animals. The following groups were used: 1) the naïve group received no treatment, 2) the sham saline group was used as a negative control and underwent jugular vein injection of only saline, 3) the untreated group received EV from TBI mice without any treatment and was used as a positive control, 4) the ENOX group received EV from TBI mice and Enoxaparin, and 5) the Anti-ASC group received EV from TBI mice and Anti-ASC. The order of treatment was randomized. Lung and brain tissues were collected 24 hours after injection for analysis. It should be noted that the anti-ASC antibody used in the treatment experiments was a humanized monoclonal antibody against ASC and recognizes murine, human and swine ASC.

[2] = tested on: lungs of animals delivered EV from injured mice (ALI); experiment: Histology (H&E) and acute lung injury scoring after adoptive transfer of EV from TBI mice and treatment; conditions: Enoxaparin 3 mg/kg or IC 100 5 mg/kg one hour after EV from TBI mice; for neutrophil infiltration into alveolar and interstitial space (H&E stained lung sections, FIG. 9A-D) / septal thickening (H&E stained lung sections, FIG. 9A-D): lungs 24 hours after injection; for ALI score (FIG. 9E): vs untreated group, score 0 (no injury) to 1 (severe injury), p=<0.0001
Method: as §1, §2
Lung tissue sections were stained by a standard hematoxylin and eosin method for histology, morphometry and ALI scoring. Lung sections were scored by a blinded pathologist using the Lung Injury Scoring System from the American Thoracic Society Workshop Report (17). Twenty random high power fields were chosen for scoring. Criteria for ALI scoring was based on number of neutrophils in the alveolar space, interstitial space, hyaline membranes, proteinaceous debris filling the airspaces and alveolar septal thickening. Based on these criteria a score between 0 (no injury) and 1 (severe injury) was given.

[3] = tested on: inflammasome proteins (caspase-1, ASC, IL-1β, AIM2, HMGB1) in lungs; experiment: Immunoblot of inflammasome proteins in lungs after adoptive transfer of EV from TBI mice and treatment; conditions: vs untreated positive control animals; Enoxaparin 3 mg/kg, IC 100 5 mg/kg; N=4 per group

Molecule | AIM2 in lungs (FIG. 8E) [1] | ASC in lungs (FIG. 8C) [1] | Caspase-1 in lungs (FIG. 8B) [1] | HMGB1 in lungs (FIG. 8F) [1] | IL-1β in lungs (FIG. 8D) [1] | neutrophil infiltration into alveolar and interstitial space (H&E stained lung sections, FIG. 9A-D) [2] | septal thickening (H&E stained lung sections, FIG. 9A-D) [2] | ALI score (FIG. 9E) [2] | IL-1β in lungs (FIG. 8D) [3]
Enoxaparin | significantly reduced | significantly reduced | significantly reduced | significantly reduced | significantly reduced | significantly less | no signs | significantly lower; also recorded: significantly decreased | reduced
B1 | significantly reduced | significantly reduced | significantly reduced | significantly reduced | significantly reduced | significantly less | no signs | significantly lower; also recorded: significantly decreased | reduced
